Results reported in PubChem BioAssay (NCI).
Where “and” joins values, the source holds several entries; their conditions need not be identical. Identical values can stand only once.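 Cells were grown in 96-well plates and exposed to each compound for 48 hours at five concentrations; endpoints were interpolated linearly between bracketing concentrations, or set to the highest concentration if not reached. Abbreviation: GI50, concentration required for 50% inhibition of growth. At the TGI there is no net growth.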

What was measured:
Assay in all cases: NCI tumour cell line growth inhibition, 48 h
786-0 renal = system: 786-0 renal
CCRF-CEM leukemia = system: CCRF-CEM leukemia
DLD-1 colon = system: DLD-1 colon
HL-60(TB) leukemia = system: HL-60(TB) leukemia
HOP-62 NSCLC = system: HOP-62 NSCLC
M19-MEL melanoma = system: M19-MEL melanoma
SNB-78 CNS = system: SNB-78 CNS
U251 CNS = system: U251 CNS
RXF 393 renal = system: RXF 393 renal
NCI/ADR-RES ovarian = system: NCI/ADR-RES ovarian

Compound	TGI (786-0 renal)	TGI (CCRF-CEM leukemia)	TGI (DLD-1 colon) [µM]	TGI (HL-60(TB) leukemia)	TGI (HOP-62 NSCLC)	TGI (M19-MEL melanoma)	TGI (SNB-78 CNS)	TGI (U251 CNS)	TGI (RXF 393 renal)	TGI (NCI/ADR-RES ovarian)	GI50 (786-0 renal)	GI50 (CCRF-CEM leukemia)	GI50 (HL-60(TB) leukemia)	GI50 (HOP-62 NSCLC)	GI50 (M19-MEL melanoma)	GI50 (RXF 393 renal)	GI50 (SNB-78 CNS)	GI50 (U251 CNS)	GI50 (NCI/ADR-RES ovarian)	GI50 (DLD-1 colon) [µM]
CC1(C)C=C(N2CCN(C3=CC(C)(C)NC(C)(C)C3)CC2)CC(C)(C)N1	> 100 µM	> 100 µM	> 100	> 100 µM	> 100 µM	> 100 µM	> 100 µM	> 100 µM	–	–	–	–	–	–	–	–	–	–	–	–
CC(O)(c1ccc(OCCC[N+](C)(C)C)cc1)C(C)(O)c1ccc(OCCC[N+](C)(C)C)cc1 (stereo not given)	> 100 µM	> 100 µM	> 100	> 100 µM	> 100 µM	–	> 100 µM	> 100 µM	> 100 µM	–	–	–	–	–	–	–	–	–	–	–
CCC1=CCC(P(=O)(c2ccccc2)c2ccccc2)CC1C (stereo not given)	> 100 µM	> 100 µM	–	53.6 µM	–	> 100 µM	> 100 µM	> 100 µM	> 100 µM	–	–	–	–	–	–	–	–	–	–	–
CCN(CC)CCCNc1nccc2c(C)c3[nH]c4ccncc4c(=O)c3cc12	11.9 µM	8.44 µM	21.8	8.58 µM	16.7 µM	–	13.7 µM	11.8 µM	3.18 µM	–	–	–	–	–	–	–	–	–	–	–
CCCCCCCCC1C(C)c2c([nH]c3ccccc23)C2C(=O)N(c3ccccc3)C(=O)C21 (stereo not given)	26.5 µM	7.09 µM	45.2	13.9 µM	38.3 µM	31.9 µM	29.8 µM	22.9 µM	6.84 µM	–	–	–	–	–	–	–	–	–	–	–
O=[N+]([O-])c1cc(C(F)(F)F)cc2n[se]nc12	4.85 µM	10.8 µM	8.93	4.02 µM	29.8 µM	10.6 µM	25.9 µM	29.5 µM	4.91 µM	5.11 µM	–	–	–	–	–	–	–	–	–	–
C=C(C)C1CC=C(C)C(O)([C@@]2(O)C[C@H](C(=C)C)CC=C2C)C1 (stereo not given in full)	31.3 µM	46.3 µM	> 100	47.2 µM	35 µM	38.1 µM	> 100 µM	34.7 µM	29.1 µM	–	–	–	–	–	–	–	–	–	–	–
c1ccc(N2CCN(CCCN3CCc4c([nH]c5ccccc45)C3c3cccnc3)CC2)cc1 (stereo not given)	> 100 µM	> 100 µM	> 100	> 58.3 µM	> 100 µM	> 100 µM	> 100 µM	> 31.6 µM	> 100 µM	–	–	–	–	–	–	–	–	–	–	–
CCCc1nn(C)c(CCC(=O)N(Cc2ccccc2)Cc2ccccc2)c1CC	> 100 µM	> 100 µM	> 100	> 100 µM	> 100 µM	> 100 µM	> 100 µM	> 100 µM	> 100 µM	–	–	–	–	–	–	–	–	–	–	–
C=C1CCCC2OC(OC)CCC12 (stereo not given)	> 100 µM	> 100 µM	> 100	> 100 µM	> 100 µM	> 100 µM	> 100 µM	> 100 µM	> 100 µM	–	–	–	–	–	–	–	–	–	–	–
CC1=C(C(=O)Nc2ccccc2C)C(c2ccccc2O)C(C(=O)Nc2ccccc2C)=C(C)N1	31.2 µM	> 100 µM	36.1	61.2 µM	45.8 µM	52 µM	74.7 µM	–	47.3 µM	–	–	–	–	–	–	–	–	–	–	–
C=C1C(=O)O[C@H]2C3OC3(C)CC/C=C(/C(=O)OC)[C@@H](OC(C)=O)[C@H](OC(=O)C3(C)OC3C)[C@H]12 (stereo not given in full)	3.73 µM and 8.4 µM and 3.45 µg/mL	0.461 µM and 1.15 µM	–	477 nM and 655 nM and 0.679 µg/mL	24.3 µM and 18.1 µg/mL	5.17 µg/mL	6.79 µg/mL	12.7 µM and 14.9 µg/mL	838 nM and 531 nM and 0.951 µg/mL	–	1.65 µM and 362 nM and 1.26 µg/mL	0.173 µM and 0.231 µM	154 nM and 0.285 µg/mL	11.9 µM and 5.74 µg/mL	1.94 µg/mL	364 nM and 190 nM and 0.407 µg/mL	1.81 µg/mL	3.73 µM and 5.25 µg/mL	–	–
O=C(CC1(O)C(=O)Nc2c(Cl)cc(Cl)cc21)c1ccc([N+](=O)[O-])cc1 (stereo not given)	> 100 µM	> 84.3 µM	> 66	> 52.5 µM	> 100 µM	22 µM	> 78.9 µM	> 100 µM	> 100 µM	–	–	–	–	–	–	–	–	–	–	–
Nc1nc(N)c(CCCCc2ccccc2)c(/C=C/c2ccc([N+](=O)[O-])cc2)n1	7.34 µM	6.01 µM	> 100	3.14 µM	12.4 µM	30.3 µM	12.8 µM	11.4 µM	–	–	–	–	–	–	–	–	–	–	–	–
CN(CO)c1nc(N(C)CO)nc(N(C)CO)n1	56.9 µM and 105 µM	73.6 µM	97.2	75.1 µM and 16.5 µM	> 90.7 µM and 56.7 µM	17.2 µM	25.3 µM	72.8 µM and 46.2 µM	34.1 µM and 22.9 µM	54.6 µM and 57.4 µM	29.6 µM	25.5 µM	26 µM	42.6 µM	–	18 µM	–	29.6 µM	21.7 µM and 20.7 µM	–
COC(=O)/C(=N\Nc1nc(=S)[nH]n1N)C(C#N)c1ccc(Cl)cc1 (stereo not given)	> 100 µM	–	> 100	–	> 100 µM	> 100 µM	> 100 µM	> 100 µM	> 100 µM	–	–	–	–	–	–	–	–	–	–	–
O=c1oc2c(O)c(O)cc3c(=O)oc4c(O)c(O)cc1c4c23	71.6 µM	> 100 µM	> 100	> 100 µM	–	> 100 µM	> 100 µM	79 µM	> 100 µM	–	–	> 100 µM	> 100 µM	–	> 100 µM	> 100 µM	> 100 µM	–	–	> 100
CC(Oc1ccc2c(=O)cc(-c3ccccc3)oc2c1)C(=O)O (stereo not given)	> 100 µM	> 100 µM	> 100	> 100 µM	> 100 µM	> 100 µM	> 100 µM	> 100 µM	> 100 µM	–	–	–	–	–	–	–	–	–	–	–
CSC(=NC(=O)c1ccccc1)SCCSC(=NC(=O)c1ccccc1)SC	> 100 µM	> 100 µM	> 100	> 100 µM	> 100 µM	> 100 µM	> 100 µM	> 100 µM	> 100 µM	–	–	–	–	–	–	–	–	–	–	–
CC1(C)C2=CCCC(=O)[C@@]2(C)CC[C@@H]1O	> 100 µM	> 100 µM	> 100	> 100 µM	> 100 µM	> 100 µM	> 100 µM	> 100 µM	> 100 µM	–	–	–	–	–	–	–	–	–	–	–
CN(CCc1ccccn1)/[N+]([O-])=N/O (tested in a mixture with another compound)	> 100 µM	> 100 µM	> 100	> 100 µM	> 100 µM	> 100 µM	> 100 µM	–	> 100 µM	–	–	–	–	–	–	–	–	–	–	–
CCc1cc2c(Nc3ccccc3)c3c(nc2s1)CCCC3	> 100 µM	> 100 µM	> 100	> 100 µM	> 100 µM	> 100 µM	> 100 µM	> 100 µM	> 100 µM	–	–	–	–	–	–	–	–	–	–	–
CC[C@@]1(O)C(=O)OCc2c1cc1n(c2=O)Cc2cc3cccc(N)c3nc2-1	8.72 µM	> 100 µM	> 100	> 100 µM	6.24 µM	> 100 µM	> 100 µM	18.8 µM	94.7 µM	–	2.38 µM	1.07 µM	3.52 µM	2.36 µM	13.1 µM	7.1 µM	> 100 µM	3.03 µM	–	> 100
CC(/C=C1\CCC(CN(C)C)C1=O)c1cccc(Br)c1 (stereo not given)	12.3 µM	11.4 µM	35.1	10.8 µM	42.2 µM	50.2 µM	44.7 µM	32.4 µM	26.5 µM	–	–	–	–	–	–	–	–	–	–	–
CCCCCCCCCCCCCP(=O)(OC)OC	33.7 µM	38.8 µM	30.5	32.9 µM	28.2 µM	33.4 µM	35.5 µM	32.9 µM	48.4 µM	–	–	–	–	–	–	–	–	–	–	–
CCCCCC1CC=CC(NC(=O)OCc2ccccc2)C1/C=C/CCCC1OCCO1 (stereo not given)	> 100 µM	> 100 µM	> 100	33.4 µM	> 100 µM	> 100 µM	> 100 µM	> 100 µM	> 100 µM	–	–	–	–	–	–	–	–	–	–	–
COC(=O)/C=C(C)/C=C/c1c(C)c(C(C)=O)c(C)n1C	> 100 µM	> 100 µM	> 100	> 100 µM	> 100 µM	> 100 µM	> 100 µM	> 100 µM	–	–	–	–	–	–	–	–	–	–	–	–
CC(=O)CCn1[nH]c(=O)c(Cl)c(Cl)c1=O	> 100 µM	> 100 µM	> 100	> 100 µM	> 100 µM	> 100 µM	> 100 µM	–	> 100 µM	–	–	–	–	–	–	–	–	–	–	–
